For orientation: pEC50 means the negative decadic logarithm of the EC50, by convention in mol/L. A higher pEC50 goes with a small EC50.

Molecules are shown by their SMILES. pEC50: −log10 of the molar value. Active and inactive are the calls of the source. The rule behind the calls is not given here.

The record followed here is ChEMBL document CHEMBL4364317, “2-O-(2-chlorobenzoyl) maslinic acid triggers apoptosis in A2780 human ovarian carcinoma cells” (Eur J Med Chem, 2019).

Assay [1] deals with A253 cell line. Nature of the assay: Anticancer activity against human A253 cells measured after 96 hrs by sulforhodamine B assay. Format: functional, cell-based. The settings on record: A253, 96 h.
In assay [2] the test system is SW-1736. Description: Anticancer activity against human SW1736 cells measured after 96 hrs by sulforhodamine B assay. It is filed as functional, cell-based. The settings on record: SW-1736, 96 h.
Assay [3] deals with HT-29. Nature of the assay: Anticancer activity against human HT-29 cells measured after 96 hrs by sulforhodamine B assay. Format: functional, cell-based. Conditions: HT-29, 96 h.
In assay [4] the test system is 8505C. Nature of the assay: Anticancer activity against human 8505C cells measured after 96 hrs by sulforhodamine B assay. Format: functional, cell-based. (In general: The SRB assay estimates cell density from bound dye.)
For assay [5], the system named is 518A2. Nature of the assay: Anticancer activity against human 518A2 cells measured after 96 hrs by sulforhodamine B assay. Conditions: 518A2, 96 h. It is filed as functional, cell-based.
The test system of assay [6] is A2780. Description: Induction of apoptosis in human A2780 cells assessed as loss of cell membrane integrity at 15 uM measured for 72 hrs by acridine orange/propidium iodide staining based fluorescence microscopic analysis. It is filed as functional.
Assay [7] concerns NIH3T3. Description: Cytotoxicity against mouse NIH/3T3 cells measured after 96 hrs by sulforhodamine B assay. Format: cell-based. The settings on record: NIH3T3, 96 h.
The test system of assay [8] is MCF7. Nature of the assay: Anticancer activity against human MCF7 cells measured after 96 hrs by sulforhodamine B assay. It is filed as functional, cell-based. The settings on record: MCF7, 96 h.
Assay [9] relates to A2780. Nature of the assay: Induction of necrosis in human A2780 cells at 15 uM measured for 72 hrs by acridine orange/propidium iodide staining based fluorescence microscopic analysis. It is filed as functional, cell-based.
Assay [10] deals with DLD-1. Description: Anticancer activity against human DLD1 cells measured after 96 hrs by sulforhodamine B assay. It is filed as functional, cell-based. The settings on record: DLD-1, 96 h.
The test system of assay [11] is A2780. Description: Induction of apoptosis in human A2780 cells assessed as […] cell death at 15 uM measured after 24 to 72 hrs by annexin v flow cytometry analysis. It is filed as functional, cell-based. (A flow cytometer gives signals particle by particle.)
In assay [12] the test system is A549. Description: Anticancer activity against human A549 cells measured after 96 hrs by sulforhodamine B assay. It is filed as functional, cell-based. Conditions: A549, 96 h.
The test system of assay [13] is A2780. Description: Induction of apoptosis in human A2780 cells assessed as membrane blebbing at 15 uM measured for 72 hrs by acridine orange/propidium iodide staining based fluorescence microscopic analysis. Format: functional, cell-based.
Assay [14] relates to A2780. Description: Anticancer activity against human A2780 cells measured after 96 hrs by sulforhodamine B assay. Conditions: A2780, 96 h. It is filed as functional, cell-based.
Assay [15] concerns A2780. Description: Induction of apoptosis in human A2780 cells assessed as membrane blebbing at 30 uM measured for 72 hrs by acridine orange/propidium iodide staining based fluorescence microscopic analysis. Format: functional, cell-based.
Assay [16] relates to A2780. Description: Induction of necrosis in human A2780 cells at 30 uM measured for 72 hrs by acridine orange/propidium iodide staining based fluorescence microscopic analysis. It is filed as functional, cell-based.
Assay [17] concerns A2780. Nature of the assay: Induction of apoptosis in human A2780 cells assessed as loss of cell membrane integrity at 30 uM measured for 72 hrs by acridine orange/propidium iodide staining based fluorescence microscopic analysis. It is filed as functional.
Assay [18] concerns A2780. Nature of the assay: Induction of apoptosis in human A2780 cells assessed as […] cell death at 30 uM measured after 24 to 72 hrs by annexin v flow cytometry analysis. It is filed as functional, cell-based.

`CC1(C)CC[C@]2(C(=O)O)CC[C@]3(C)C(=CC[C@@H]4[C@@]5(C)C[C@@H](OC(=O)c6ccccc6Cl)[C@H](O)C(C)(C)[C@@H]5CC[C@]43C)[C@@H]2C1`: the pEC50 was 4.98 in [1]; 4.86 in [2]; 5.07 in assay [3]; 5.05 in [4]; 5.08 in [5]; 4.98 in assay [7]. The negative logarithm of the EC50 (pEC50) in [8] is 5.25; in [10], 5.12; in assay [12], 5.12; in assay [14], 5.33. In addition, the outcome in assay [6], in [9], in [11] and in assay [13] was Active.

Consider `CC1(C)CC[C@]2(C(=O)O)CC[C@]3(C)C(=CC[C@@H]4[C@@]5(C)C[C@@H](O)[C@H](O)C(C)(C)[C@@H]5CC[C@]43C)[C@@H]2C1` [MASLINIC ACID], for which the outcome in [15], in assay [16], in assay [17] and in assay [18] was Active. Also, the results for the pEC50 in assay [7] and in assay [8] were 4.78 and 4.61, respectively.

As for `CC(=O)O[C@@H]1C[C@]2(C)[C@H]3CC=C4[C@@H]5CC(C)(C)CC[C@]5(C(=O)O)CC[C@@]4(C)[C@]3(C)CC[C@H]2C(C)(C)[C@H]1O`, the pEC50 was 4.96 in assay [1]; 4.97 in assay [3]; 5.06 in [4]; 4.68 in assay [5]; 4.81 in assay [7]; 4.94 in [8]. Besides, the pEC50 was 4.64 in assay [10], 5.37 in [12] and 4.70 in assay [14].

On to `CC1(C)CC[C@]2(C(=O)O)CC[C@]3(C)C(=CC[C@@H]4[C@@]5(C)C[C@@H](OC(=O)c6ccccc6)[C@H](O)C(C)(C)[C@@H]5CC[C@]43C)[C@@H]2C1`, for which the pEC50 in assay [1] was 5.05; in assay [2], 4.74; in assay [3] it was 4.90; in assay [4], 4.95; in assay [5], 4.81; in assay [7], 4.82. For the same compound, the negative-log EC50 (pEC50) was 4.99 in assay [10], 5.04 in assay [12] and 5.19 in assay [14].

Consider `CC1(C)CC[C@]2(C(=O)O)CC[C@]3(C)C(=CC[C@@H]4[C@@]5(C)C[C@@H](OC(=O)c6cccnc6Cl)[C@H](OC(=O)c6cccnc6Cl)C(C)(C)[C@@H]5CC[C@]43C)[C@@H]2C1`, for which the negative logarithm of the EC50 (pEC50) in assay [1] is less than 4.52; in [2], less than 4.52; in [3] it was less than 4.52; in assay [4], less than 4.52; in [5], 4.77; in assay [7], less than 4.52. The pEC50 in assay [8] is less than 4.52; in assay [10], less than 4.52; in [12], less than 4.52; in assay [14], 4.53.

Regarding `CC1(C)CC[C@]2(C(=O)O)CC[C@]3(C)C(=CC[C@@H]4[C@@]5(C)C[C@@H](OC(=O)c6ccccc6)[C@H](OC(=O)c6ccccc6)C(C)(C)[C@@H]5CC[C@]43C)[C@@H]2C1`, the negative-log EC50 (pEC50) in assay [1] is 4.90; in assay [2], 4.71; in [3] it was 4.78; in [4] it was 4.79; in [7], 4.63; in assay [10], 4.75. The negative-log EC50 (pEC50) in assay [12] was 4.76; in assay [14], 4.95.

In the case of `CC1(C)CC[C@]2(C(=O)O)CC[C@]3(C)C(=CC[C@@H]4[C@@]5(C)C[C@@H](OC(=O)c6cc([N+](=O)[O-])cc([N+](=O)[O-])c6)[C@H](O)C(C)(C)[C@@H]5CC[C@]43C)[C@@H]2C1`, the negative-log EC50 (pEC50) in assay [1] was 5.01; in assay [2], 4.83; in assay [3], 4.95; in [4], 5.09; in assay [5], 4.92; in [7], 4.76. Also, the pEC50 in assay [8] was 5.29; in assay [10], 5.15; in assay [12], 5.21; in assay [14], 5.21.

Take `CC1(C)CC[C@]2(C(=O)O)CC[C@]3(C)C(=CC[C@@H]4[C@@]5(C)C[C@@H](O)[C@H](OC(=O)c6ccccc6F)C(C)(C)[C@@H]5CC[C@]43C)[C@@H]2C1`: the pEC50 in assay [1] is 5.18; in assay [2] it was 4.67; in assay [4], 4.90; in assay [5], 4.93; in assay [7] it was 4.90; in [8] it was 5.17. Besides, the figures for the pEC50 in assay [10], in [12] and in assay [14] were 5.00, 5.01 and 5.22, respectively.

As for `CC1(C)CC[C@]2(C(=O)O)CC[C@]3(C)C(=CC[C@@H]4[C@@]5(C)C[C@@H](O)[C@H](OC(=O)c6ccccc6Cl)C(C)(C)[C@@H]5CC[C@]43C)[C@@H]2C1`, the pEC50 was 5.27 in [1]; 4.89 in assay [2]; 5.16 in assay [4]; 5.17 in assay [5]; 5.15 in assay [7]; 5.48 in assay [8]. In addition, the pEC50 in [10] is 5.28; in assay [12], 5.24.

In the case of `CC1(C)CC[C@]2(C(=O)O)CC[C@]3(C)C(=CC[C@@H]4[C@@]5(C)C[C@@H](OC(=O)c6ccccc6F)[C@H](O)C(C)(C)[C@@H]5CC[C@]43C)[C@@H]2C1`, the negative logarithm of the EC50 (pEC50) in assay [1] is 4.89; in assay [2], 4.77; in [3], 5.20; in [4], 4.90; in assay [5], 4.94; in assay [7], 4.77. Moreover, the negative logarithm of the EC50 (pEC50) in assay [8] is 5.15; in [10], 4.97; in assay [12] it was 5.03; in assay [14], 5.22.

`CC(=O)O[C@@H]1C[C@]2(C)[C@H]3CC=C4[C@@H]5CC(C)(C)CC[C@]5(C(=O)O)CC[C@@]4(C)[C@]3(C)CC[C@H]2C(C)(C)[C@H]1OC(C)=O`: the pEC50 in assay [1] is 5.11; in [3], 5.07; in assay [4], 5.24; in [5], 4.84; in assay [7], 4.98; in assay [8], 5.07. The pEC50 in assay [10] is 4.77; in assay [12], 5.38; in assay [14] it was 4.76.

As for `CC1(C)CC[C@]2(C(=O)O)CC[C@]3(C)C(=CC[C@@H]4[C@@]5(C)C[C@@H](O)[C@H](OC(=O)c6cc([N+](=O)[O-])cc([N+](=O)[O-])c6)C(C)(C)[C@@H]5CC[C@]43C)[C@@H]2C1`, the negative-log EC50 (pEC50) is 5.08 in assay [1]; 4.89 in assay [2]; 5.03 in assay [3]; 5.12 in [4]; 4.80 in [7]; 5.38 in [8]. The pEC50 was 5.14 in [10] and 5.26 in assay [14].
